Laboratory results published in ChEMBL document CHEMBL5523747, “Discovery of a Series of Orally Bioavailable Androgen Receptor Degraders for the Treatment of Prostate Cancer” (J Med Chem, 2024).
The source made the active and inactive calls. The calls are words filed in the database; no cut-off is given here.

Assays:
[1] = Half life in CD-1 mouse at 1 mg/kg, po and 0.5 mg/kg, iv; type: ADME, organism-based; settings: in vivo
[2] = test system: Protein cereblon/Androgen receptor (Homo sapiens), P10275+Q96SW2 [L702H]; assay: PROTAC activity at CRBN/AR L702H mutant (unknown origin) expressed in human LNCaP cells assessed as maximal protein degradation measured after 24 hrs incubation by imaging IF assay relative to control; type: cell-based
[3] = target: Protein cereblon/Androgen receptor (Homo sapiens, UniProt P10275+Q96SW2, L702H); assay: PROTAC activity at CRBN/AR L702H mutant (unknown origin) expressed in human LNCaP cells assessed as protein degradation measured after 24 hrs incubation by imaging IF assay; type: cell-based
Sequence of Protein cereblon/Androgen receptor (Homo sapiens, UniProt P10275+Q96SW2, L702H) (P10275 whole entry L702H, stated change not applied): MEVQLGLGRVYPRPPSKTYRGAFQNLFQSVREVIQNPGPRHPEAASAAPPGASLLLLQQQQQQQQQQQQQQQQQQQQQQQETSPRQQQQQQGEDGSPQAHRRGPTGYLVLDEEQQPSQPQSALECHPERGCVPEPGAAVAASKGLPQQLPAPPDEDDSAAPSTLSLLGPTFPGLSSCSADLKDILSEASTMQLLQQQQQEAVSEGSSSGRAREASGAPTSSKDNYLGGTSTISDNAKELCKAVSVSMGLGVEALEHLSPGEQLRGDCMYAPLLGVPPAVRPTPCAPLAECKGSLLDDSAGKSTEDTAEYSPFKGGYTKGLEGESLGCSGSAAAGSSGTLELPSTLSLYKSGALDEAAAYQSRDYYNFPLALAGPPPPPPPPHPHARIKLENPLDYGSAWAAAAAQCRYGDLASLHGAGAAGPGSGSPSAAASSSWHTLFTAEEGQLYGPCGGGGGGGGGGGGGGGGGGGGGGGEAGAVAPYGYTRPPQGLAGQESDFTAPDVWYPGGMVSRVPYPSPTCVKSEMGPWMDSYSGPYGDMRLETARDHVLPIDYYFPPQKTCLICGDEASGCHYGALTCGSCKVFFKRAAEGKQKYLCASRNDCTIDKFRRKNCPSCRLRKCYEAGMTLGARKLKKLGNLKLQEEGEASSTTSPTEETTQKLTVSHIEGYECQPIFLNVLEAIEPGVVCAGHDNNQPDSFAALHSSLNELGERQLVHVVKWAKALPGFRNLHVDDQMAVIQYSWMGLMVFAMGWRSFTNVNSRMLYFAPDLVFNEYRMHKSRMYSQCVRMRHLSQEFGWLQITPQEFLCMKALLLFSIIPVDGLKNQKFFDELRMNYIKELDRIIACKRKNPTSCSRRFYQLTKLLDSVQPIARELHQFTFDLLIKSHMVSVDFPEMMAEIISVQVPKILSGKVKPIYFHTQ
Sequence of Protein cereblon/Androgen receptor (Homo sapiens, UniProt P10275+Q96SW2, L702H) (Q96SW2 whole entry, stated change not applied): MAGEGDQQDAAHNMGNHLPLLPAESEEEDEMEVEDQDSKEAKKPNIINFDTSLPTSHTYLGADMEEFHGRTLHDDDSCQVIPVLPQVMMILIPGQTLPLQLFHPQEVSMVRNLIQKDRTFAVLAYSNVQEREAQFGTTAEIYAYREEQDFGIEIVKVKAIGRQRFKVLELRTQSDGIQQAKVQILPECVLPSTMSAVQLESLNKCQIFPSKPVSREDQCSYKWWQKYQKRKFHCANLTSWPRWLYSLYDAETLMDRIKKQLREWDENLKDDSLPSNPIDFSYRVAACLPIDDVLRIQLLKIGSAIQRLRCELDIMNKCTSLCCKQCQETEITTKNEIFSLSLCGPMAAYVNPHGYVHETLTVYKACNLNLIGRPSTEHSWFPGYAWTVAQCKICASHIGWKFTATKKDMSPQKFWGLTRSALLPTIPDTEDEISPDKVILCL

[4] = target: T1, Protein cereblon/Androgen receptor (Homo sapiens, UniProt P10275+Q96SW2); assay: PROTAC activity at AR/CRBN in human LNCaP cells assessed as maximal protein degradation measured after 24 hrs incubation by imaging IF assay relative to control; type: cell-based
Target sequence in this assay (P10275 whole entry, looked up): as the sequence (P10275 whole entry L702H, stated change not applied) above, with H702L counted along it
Target sequence in this assay (Q96SW2 whole entry, looked up): as the sequence (Q96SW2 whole entry, stated change not applied) above

[5] = target: T1, Protein cereblon/Androgen receptor; assay: PROTAC activity at AR/CRBN in human LNCaP cells assessed as protein degradation measured after 24 hrs incubation by imaging IF assay; type: cell-based
Target sequence in this assay (P10275 whole entry): as the sequence (P10275 whole entry L702H, stated change not applied) above, with H702L counted along it
Target sequence in this assay (Q96SW2 whole entry): as the sequence (Q96SW2 whole entry, stated change not applied) above

[6] = Oral bioavailability in CD-1 mouse at 1 mg/kg; type: ADME, organism-based; settings: in vivo
[7] = Volume of distribution at steady state in CD-1 mouse at 1 mg/kg, po and 0.5 mg/kg, iv; type: ADME, organism-based; settings: in vivo
[8] = Metabolic stability in human liver microsomes assessed as intrinsic clearance; type: ADME, Microsome; settings: read-out: CLH
[9] = target: T1, Protein cereblon/Androgen receptor; assay: PROTAC activity at AR/CRBN in human LNCaP cells assessed as protein degradation measured after 24 hrs incubation in presence of excess lenalidomide CRBN ligand by imaging IF assay; type: cell-based
Target sequence in this assay (P10275 whole entry, looked up): as the sequence (P10275 whole entry L702H, stated change not applied) above, with H702L counted along it
Target sequence in this assay (Q96SW2 whole entry, looked up): as the sequence (Q96SW2 whole entry, stated change not applied) above

[10] = Volume of distribution at steady state in Beagle dog at 1 mg/kg, po and 0.5 mg/kg, iv infusion over 0.25 hrs; type: ADME, organism-based, Canis lupus familiaris; settings: in vivo
[11] = Volume of distribution at steady state in CD-1 mouse at 1 mg/kg, po and 0.5 mg/kg, iv bolus; type: ADME, organism-based; settings: in vivo
LNCaP [12] = assay: Effect on AR mRNA level in human LNCaP cells at 0.0001 to 10 uM measured after 24 hrs incubation by QRTPCR analysis; type: functional, cell-based; settings: dose 0.0001-10 µM
[13] = target: T1, Protein cereblon/Androgen receptor; assay: PROTAC activity at AR/CRBN in adrogen-sensitive human VCaP cells assessed as protein degradation at 0.0001 to 10 uM measured after 24 hrs incubation by Western blot analysis; type: cell-based; settings: dose 0.0001-10 µM
Target sequence in this assay (P10275 whole entry, looked up): as the sequence (P10275 whole entry L702H, stated change not applied) above, with H702L counted along it
Target sequence in this assay (Q96SW2 whole entry, looked up): as the sequence (Q96SW2 whole entry, stated change not applied) above

[14] = Oral bioavailability in Han Wistar rat at 1 mg/kg; type: ADME, organism-based; settings: in vivo
[15] = target: T1, Protein cereblon/Androgen receptor; assay: PROTAC activity at AR/CRBN in human LNCaP cells assessed as protein degradation measured after 24 hrs incubation in presence of excess enzalutamide AR binder by imaging IF assay; type: cell-based
Target sequence in this assay (P10275 whole entry, looked up): as the sequence (P10275 whole entry L702H, stated change not applied) above, with H702L counted along it
Target sequence in this assay (Q96SW2 whole entry, looked up): as the sequence (Q96SW2 whole entry, stated change not applied) above

LNCaP [16] = assay: Anti-proliferative activity against human LNCaP cells assessed as number of live cells measured after 7 days by Sytox Green Nucleic Acid stain assay; type: functional; settings: 168 h, time 7 day
LNCaP C4-2 [17] = assay: In vivo degradation of AR in human LNCaP C4-2 cells xenografted in mouse model assessed as degradation at 30 mg/kg, po once daily measured after 10 days relative to control; type: functional; settings: time 10 day
[18] = Total plasma concentration in mouse xenografted with human LNCaP C4-2 cells at 30 mg/kg, po once daily measured after 10 days; type: ADME, organism-based; settings: time 10 day, read-out: Cp(T)
[19] = Half life in Han Wistar rat at 1 mg/kg, po and 0.5 mg/kg, iv bolus; type: ADME, organism-based; settings: in vivo
[20] = Half life in CD-1 mouse at 1 mg/kg, po and 0.5 mg/kg, iv bolus; type: ADME, organism-based; settings: in vivo
LNCaP C4-2 [21] = assay: In vivo antitumor activity in human LNCaP C4-2 cells xenografted in mouse model assessed as tumor growth inhibition at 30 mg/kg, po once daily measured after 28 days relative to control; type: functional; settings: LNCaP C4-2, 672 h, time 28 day, read-out: TGI
[22] = Oral bioavailability in Beagle dog at 1 mg/kg; type: ADME, organism-based, Canis lupus familiaris; settings: in vivo
[23] = Volume of distribution at steady state in Han Wistar rat at 1 mg/kg, po and 0.5 mg/kg, iv bolus; type: ADME, organism-based; settings: in vivo
[24] = target: T1, Protein cereblon/Androgen receptor; assay: PROTAC activity at AR/CRBN in androgen-independent human LNCaP C4-2 cells assessed as protein degradation at 0.0001 to 10 uM measured after 24 hrs incubation by Western blot analysis; type: cell-based; settings: dose 0.0001-10 µM
Target sequence in this assay (P10275 whole entry, looked up): as the sequence (P10275 whole entry L702H, stated change not applied) above, with H702L counted along it
Target sequence in this assay (Q96SW2 whole entry, looked up): as the sequence (Q96SW2 whole entry, stated change not applied) above

[25] = Half life in Beagle dog at 1 mg/kg, po and 0.5 mg/kg, iv infusion over 0.25 hrs; type: ADME, organism-based, Canis lupus familiaris; settings: in vivo
LNCaP C4-2 [26] = assay: In vivo degradation of AR in human LNCaP C4-2 cells xenografted in mouse model assessed as tumor growth inhibition at 10 mg/kg, po once daily measured after 28 days relative to control; type: functional, organism-based; settings: time 28.0 day

| Compound | half-life [1] [h] | Emax [2] [%] | DC50 [3] [nM] | Emax [4] [%] | DC50 [5] [nM] | bioavailability [6] [%] | Vdss [7] [L/kg] | microsomal CLint [8] [µL/min/mg] | also measured |
| --- | --- | --- | --- | --- | --- | --- | --- | --- | --- |
| COc1cc(N2CCN(CC3CCN(c4ccc(C5CCN(c6ccc(C#N)c(C(F)(F)F)c6F)CC5)c(F)c4)CC3)CC2)cc2c1C(=O)N(C1CCC(=O)NC1=O)C2 (stereo not drawn) | 17 | 100 | 469 | 100 | 12 | 50 | 2.2 | – | – |
| N#Cc1ccc(N2CCC(c3ccc(N4CCC(CN5CCN(c6ccc7c(c6)CN(C6CCC(=O)NC6=O)C7=O)CC5)CC4)cc3)CC2)cc1C(F)(F)F (stereo not drawn) | 19 | – | > 3000 | 85 | 18 | 46 | 4.5 | 3 | – |
| COc1cc(N2CCN(CC3CCN(c4ccc(C5CCN(c6ccc(C#N)c(C(F)(F)F)c6F)CC5)cc4)CC3)CC2)cc2c1C(=O)N(C1CCC(=O)NC1=O)C2 (stereo not drawn) | 9 | 74 | 92 | 96 | 22 | 62 | 1.5 | – | Activity [9]: inactive; Vdss [10]: 2.4 L/kg; Vdss [11]: 1.5 L/kg; Activity (LNCaP [12]): inactive; Activity [13]: Active; bioavailability [14]: 29%; Activity [15]: inactive; GI50 (LNCaP [16]): 74 nM; Activity (LNCaP C4-2 [17]): >90%; concentration at 240 h [18]: ~20 µM; half-life [19]: 11 h; half-life [20]: 9 h; inhibition in vivo at 30 mg/kg (LNCaP C4-2 [21]): 70%; bioavailability [22]: 18%; Vdss [23]: 9 L/kg; Activity [24]: Active; half-life [25]: 12.5 h |
| N#Cc1ccc(N2CCC(c3ccc(OCCCN4CCN(c5ccc6c(c5)CN(C5CCC(=O)NC5=O)C6=O)CC4)cc3)CC2)cc1C(F)(F)F (stereo not drawn) | – | – | – | 79 | 16 | – | – | 5 | – |
| N#Cc1ccc(N2CCC(c3ccc(OCCCCCN4CCN(c5ccc6c(c5)CN(C5CCC(=O)NC5=O)C6=O)CC4)cc3)CC2)cc1C(F)(F)F (stereo not drawn) | – | – | – | 94 | 15 | – | – | 12 | – |
| COc1cc(N2CCN(CC3CCN(c4cc(F)c(C5CCN(c6ccc(C#N)c(C(F)(F)F)c6F)CC5)c(F)c4)CC3)CC2)cc2c1C(=O)N(C1CCC(=O)NC1=O)C2 (stereo not drawn) | 41 | 80 | 633 | 100 | 18 | 30 | 3.6 | – | – |
| Cc1c(N2CCC(c3ccc(N4CCC(CN5CCN(c6ccc7c(c6)CN(C6CCC(=O)NC6=O)C7=O)CC5)CC4)cc3)CC2)ccc(C#N)c1C(F)(F)F (stereo not drawn) | – | – | > 3000 | 70 | 152 | – | – | – | – |
| N#Cc1ccc(O[C@H]2CC[C@H](NC(=O)c3ccc(N4CCC(CN5CCN(c6cc7c(cc6F)C(=O)N(C6CCC(=O)NC6=O)C7=O)CC5)CC4)nn3)CC2)cc1Cl (stereo partly drawn) | – | – | – | – | – | – | – | – | Activity (LNCaP C4-2 [26]): Active |
| N#Cc1ccc(N2CCC(c3ccc(OCCCCN4CCN(c5ccc6c(c5)C(=O)N(C5CCC(=O)NC5=O)C6=O)CC4)cc3)CC2)cc1C(F)(F)F (stereo not drawn) | – | – | – | 100 | 22 | – | – | 21 | – |
